Experimental findings from the supplement of paper PMC4862054 are described below.

Where “and” joins values, the source holds several entries; their conditions need not be identical. Equal values may be shown once.

The subject of test [1] is CAL-85-1. As to the kind of experiment: normalised viability (% of control), CellTiter-Blue; higher = more viable cells (about 100 = DMSO control). To be noted: incubation time: 72 h. The method in brief:
(§1)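 Breast cancer cell lines in 20 µl suspension were seeded onto 384-well plates pre-loaded with compound dissolved in 5 µl medium, then incubated 72 h. CellTiter-Blue reagent (2.5 µl) was added for 2 h at 37 °C and fluorescence read at 560/590 nm. Each plate was normalised to vehicle (100) and a positive kill control (0), with Z'-factor quality control. The value is normalised viability at one listed concentration of the series.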
A general note: Alamar Blue is a resazurin reagent that responds to reducing activity.

Test [2] concerns DU-4475. Described as above. Particulars: incubation time: 72 h. In a few lines:
as §1

For test [3], the system named is HDQ-P1. Described as above. To be noted: incubation time: 72 h. In a few lines: as §1
Test [4] has as its system MDA-MB-453. The description is as above. To be noted: incubation time: 72 h. In a few lines: as §1
The subject of test [5] is BT-474. To be noted: 72 h. The method, then:
(§2)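 Drug sensitivity and resistance testing (DSRT) of breast cancer cell lines in 384-well plates, 5 concentrations in 10-fold dilutions over a compound-specific 10,000-fold range. After 72 h, cytotoxicity was read by CellTox Green fluorescence and viability by CellTiter-Glo luminescence (multiplexed), normalised to DMSO and benzethonium chloride controls. EC50 is the inflection point of the fitted dose-response curve (bottom asymptote free, so it can be relative for partial curves) and is censored at the highest tested concentration. Rows with DSS 0 (no meaningful response) were excluded.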

Test [6] deals with BT-549. To be noted: 72 h. The method, then: as §2
The subject of a further test is CAL-148. To be noted: 72 h. In a few lines:
(§3)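 Each 384-well plate was pre-loaded with compound dissolved in 5 µl medium, received breast cancer cells in 20 µl suspension, and was incubated 72 h. A 2.5 µl addition of CellTiter-Blue for 2 h at 37 °C was followed by a fluorescence read at 560/590 nm. Data were normalised per plate to vehicle and a positive kill control and checked by Z'-factor. EC50 was fitted from the percent-inhibition dose-response curve, censored at the highest concentration, excluding rows with a drug sensitivity score of zero.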

Test [7] deals with CAL-51. To be noted: 72 h. The method in brief: as §3
Test [8] has as its system CAL-85-1. Particulars: 72 h. In a few lines: as §3
For test [9], the system named is DU-4475. Particulars: 72 h. In a few lines: as §3
Test [10] relates to MDA-MB-453. To be noted: 72 h. The method in brief: as §3
Test [11] concerns BT-474. Particulars: 72 h. In a few lines:
as §3
The source holds these as a separate data set.

Test [12] concerns BT-549. Particulars: 72 h. The method in brief: as §3
This is another data set of the same source.

The next test relates to CAL-120. To be noted: 72 h. In a few lines:
as §3

Another test concerns HCC1143. To be noted: 72 h. The method in brief:
as §3

The next test relates to HCC1937. To be noted: 72 h. The method in brief: as §3
The test system of test [13] is Hs578T. Particulars: 72 h. The method in brief:
as §3

The next test deals with MDA-MB-231. To be noted: 72 h. The method in brief:
as §3

A further test relates to MDA-MB-436. Particulars: 72 h. The method in brief: as §3
Test [14] has as its system MDA-MB-468. To be noted: 72 h. In a few lines: as §3
The next test relates to MFM-223. Particulars: 72 h. The method in brief:
as §3

The subject of another test is SK-BR-3. Particulars: 72 h. In a few lines: as §3
Test [15] relates to CAL-51. Particulars: 72 h. The method, then: as §2
The source holds these as a separate data set.

Test [16] deals with CAL-85-1. Particulars: 72 h. The method, then: as §2
The source holds these as a separate data set.

Test [17] relates to MDA-MB-468. Particulars: 72 h. The method, then:
as §2
This is another data set of the same source.

Test [18] deals with Hs578T. Particulars: 72 h. The method, then:
as §2
The source holds these as a separate data set.

In test [19] the test system is HDQ-P1. Particulars: 72 h. The method in brief: as §3
The next test deals with HCC1599. Particulars: 72 h. The method in brief:
as §3

Take `Nc1ccn([C@@H]2O[C@H](CO)[C@@H](O)C2(F)F)c(=O)n1` [Gemcitabine] (1000 nM): the normalised viability with CAL-85-1 [1] is 5.03%; with DU-4475 [2], 11.2%; in the test with HDQ-P1 [3], 100%; with MDA-MB-453 [4] it was 1.2%.
In the case of `CC(C)C[C@H](NC(=O)[C@@H](COC(C)(C)C)NC(=O)[C@H](Cc1ccc(O)cc1)NC(=O)[C@H](CO)NC(=O)[C@H](Cc1c[nH]c2ccccc12)NC(=O)[C@H](Cc1cnc[nH]1)NC(=O)[C@@H]1CCC(=O)N1)C(=O)N[C@@H](CCCNC(=N)N)C(=O)N1CCC[C@H]1C(=O)NNC(N)=O` [Goserelin], the “EC50, CellTox Green” value in the test on BT-474 [5] was above 10000 nM.
As for `CC(C)C[C@H](NC(=O)[C@@H](COC(C)(C)C)NC(=O)[C@H](Cc1ccc(O)cc1)NC(=O)[C@H](CO)NC(=O)[C@H](Cc1c[nH]c2ccccc12)NC(=O)[C@H](Cc1cnc[nH]1)NC(=O)[C@@H]1CCC(=O)N1)C(=O)N[C@@H](CCCNC(=N)N)C(=O)N1CCC[C@H]1C(=O)NNC(N)=O` [Goserelin] (10000 nM), the normalised viability in the test with CAL-85-1 [1] was 84.9%; in the test with DU-4475 [2], 104%; in the test on HDQ-P1 [3], 140%; in the test on MDA-MB-453 [4], 89.8%.
As to `O=C(O)CNC(=O)c1c(O)c2ccccc2n(Cc2ccccc2)c1=O` [IOX-2], the “EC50, CellTox Green” value in the test with BT-549 [6] was determined as 1170 nM.
With `CC(=O)[C@]1(O)Cc2c(O)c3c(c(O)c2[C@@H](O[C@H]2C[C@H](N)[C@H](O)[C@H](C)O2)C1)C(=O)c1ccccc1C3=O` [Idarubicin] (1000 nM), the normalised viability with CAL-85-1 [1] came to 6.92%; in the test with DU-4475 [2], 0.02%; in the test with HDQ-P1 [3] it was 17%; in the test with MDA-MB-453 [4], 11.6%.
In the case of `C/C(=C\c1csc(C)n1)[C@@H]1C[C@@H]2O[C@]2(C)CCC[C@H](C)[C@H](O)[C@@H](C)C(=O)C(C)(C)[C@@H](O)CC(=O)N1` [Ixabepilone], the “EC50, CellTiter-Blue viability” value with CAL-148 was 601 nM; with CAL-51 [7] it was above 1000 nM; in the test on CAL-85-1 [8], 947 nM; in the test with DU-4475 [9], 642 nM; in the test on MDA-MB-453 [10], 515 nM; with BT-474 [11], 672 nM. For the same molecule, the “EC50, CellTiter-Blue viability” value with BT-549 [12] was 510 nM; in the test on CAL-120 it was 333 nM; in the test on HCC1143, 371 nM; in the test on HCC1937, 371 nM; with Hs578T [13], 625 nM; with MDA-MB-231, 84.3 nM. The “EC50, CellTiter-Blue viability” value with MDA-MB-436 amounted to 173 nM; in the test on MDA-MB-468 [14], 834 nM; with MFM-223, 322 nM; with SK-BR-3 it was 274 nM. The “EC50, CellTox Green” value with BT-549 [6] was determined as 10.8 nM; in the test on CAL-51 [15] it was 38.4 nM; in the test with CAL-85-1 [16], 437 nM.
For `C/C(=C\c1csc(C)n1)[C@@H]1C[C@@H]2O[C@]2(C)CCC[C@H](C)[C@H](O)[C@@H](C)C(=O)C(C)(C)[C@@H](O)CC(=O)N1` [Ixabepilone] (1000 nM), the normalised viability with CAL-85-1 [1] was 36.9%; in the test with DU-4475 [2] it was 21.5%; in the test on HDQ-P1 [3], 37%; in the test with MDA-MB-453 [4] it was 5.47%.
The matching figures for `C=CCn1c(=O)c2cnc(Nc3ccc(N4CCN(C)CC4)cc3)nc2n1-c1cccc(C(C)(C)O)n1` [MK1775] (10000 nM): 17.4%, 2.68%, 16% and 15.2%.
For the molecule `CN(C)C(=N)NC(=N)N` [Metformin], the entries for the “EC50, CellTox Green” value in the test on CAL-51 [15] and with MDA-MB-468 [17] were 100 nM and 710 nM, respectively.
On to `COc1c2occc2cc2ccc(=O)oc12` [Methoxsalen], for which the “EC50, CellTiter-Blue viability” value in the test with CAL-148 is 6360 nM; in the test with CAL-85-1 [8], 9050 nM; in the test with DU-4475 [9], 6860 nM; in the test on MDA-MB-453 [10] it was 7900 nM.
Turning to `CO[C@@H]1[C@H](N(C)C(=O)c2ccccc2)C[C@H]2O[C@]1(C)n1c3ccccc3c3c4c(c5c6ccccc6n2c5c31)C(=O)NC4` [Midostaurin] (10000 nM), the normalised viability came to 78.9% in the test with CAL-85-1 [1], 3.76% in the test on DU-4475 [2], 80.1% with HDQ-P1 [3] and 61.4% in the test on MDA-MB-453 [4].
As to `CO[C@@]12[C@H](COC(N)=O)C3=C(C(=O)C(C)=C(N)C3=O)N1C[C@@H]1N[C@@H]12` [Mitomycin C] (10000 nM), the normalised viability in the test on CAL-85-1 [1] was 2.67%; in the test with DU-4475 [2] it was -0.46%; with HDQ-P1 [3], 42.6%; in the test on MDA-MB-453 [4], 5.36%.
The corresponding values for `CCNC(=O)c1noc(-c2cc(C(C)C)c(O)cc2O)c1-c1ccc(CN2CCOCC2)cc1` [NVP-AUY922] (1000 nM) are 26.6%, 2.34%, 32.7% and 7.53%.
Turning to `CC1(C)CCC(c2ccc(Cl)cc2)=C(CN2CCN(c3ccc(C(=O)NS(=O)(=O)c4ccc(N[C@H](CCN5CCOCC5)CSc5ccccc5)c(S(=O)(=O)C(F)(F)F)c4)cc3)CC2)C1` [Navitoclax] (10000 nM), the normalised viability was 71.3% with CAL-85-1 [1], 4.02% in the test with DU-4475 [2], 60.2% in the test with HDQ-P1 [3] and 52.7% in the test on MDA-MB-453 [4].
For the molecule `Cc1cn(-c2cc(NC(=O)c3ccc(C)c(Nc4nccc(-c5cccnc5)n4)c3)cc(C(F)(F)F)c2)cn1` [Nilotinib], the “EC50, CellTiter-Blue viability” value came out at 2590 nM in the test with BT-549 [12] and 117 nM in the test with HCC1937. Moreover, in the test with Hs578T [18], the “EC50, CellTox Green” value is above 10000 nM.
Regarding `Cc1cn(-c2cc(NC(=O)c3ccc(C)c(Nc4nccc(-c5cccnc5)n4)c3)cc(C(F)(F)F)c2)cn1` [Nilotinib] (10000 nM), the normalised viability was 86.3% and 84.9% in the test with CAL-85-1 [1]; 102% and 86.8% in the test on DU-4475 [2]; 84.2% and 86.2% with HDQ-P1 [3]; 106% and 94.7% in the test with MDA-MB-453 [4].
With `C=CCN(/C=C1/C(=O)O[C@H](COC)[C@@]2(C)C1=C(O)C(=O)C1=C2[C@H](OC(C)=O)C[C@]2(C)C(=O)CC[C@@H]12)CC=C` [PX-866], the “EC50, CellTiter-Blue viability” value in the test on HDQ-P1 [19] was 2170 nM; in the test on BT-474 [11] it was 1680 nM; in the test with CAL-120, 1020 nM; in the test with HCC1143, 1130 nM; in the test on HCC1937 it was 725 nM; with Hs578T [13], 6750 nM. In addition, the “EC50, CellTiter-Blue viability” value with MDA-MB-231 is 951 nM; in the test with MDA-MB-468 [14], 1390 nM; in the test with SK-BR-3, 1320 nM.
Turning to `CC[C@H](CO)Nc1nc(NCc2ccccc2)c2ncn(C(C)C)c2n1` [Roscovitine], the “EC50, CellTiter-Blue viability” value is 684 nM in the test with BT-549 [12]; above 10000 nM with HCC1143; 2290 nM in the test on HCC1599; 7660 nM in the test with Hs578T [13]; 2500 nM with MDA-MB-436.
Turning to `O=C(CCCCCCC(=O)Nc1ccccc1)NO` [Vorinostat] (10000 nM), the normalised viability was 30.1% and 32.4% in the test on CAL-85-1 [1]; 50.1% and 46.5% in the test with DU-4475 [2]; 51.6% and 62.6% in the test with HDQ-P1 [3]; 3.12% and 2.8% with MDA-MB-453 [4].
